The values below come from US7566733B2, “Benzimidazole derivatives useful as selective androgen receptor modulators (sarms)” (priority 2004, dated 2009).

For this test, the system named is castrated male Sprague Dawley rats. Briefly: Ventral Prostate and Seminal Vesicle Weight In Vivo Assay. Note: key: active: the non weight adjusted prostate weight was ≦40 mg or the % Inhibition prostate weight, body weight adjusted was ≧40%@2 mg/day dosage; inactive: did not meet the specified criteria defined above. The following applies: inhibition of testosterone-enhanced prostate weight; immature castrated rats, once daily for five days, usually orally 40 mg/kg, with testosterone propionate 2 mg/kg s.c. The procedure:
Ventral Prostate and Seminal Vesicle Weight In Vivo Assay
Immature (approximately 50 g) castrated male Sprague Dawley rats (Charles River) were treated once daily for five days with test compound (usually given orally at 40 mg/kg in a volume of 0.3 mL, in 30% cyclodextrin or 0.5% methylcellulose vehicle) and with testosterone propionate (given subcutaneously by injection at the nape of the neck at 2 mg/kg, in a volume of 0.1 mL in sesame oil). On the sixth day, the rats were euthanized by asphyxiation in carbon dioxide. Ventral prosatates and seminal vesicles were removed and their wet weights determined. Test compound activity was determined as the percent inhibition of testosterone-enhanced tissue weights, with a vehicle-treated control group set to zero percent and a testosterone alone-treated control group set to 100%.
Representative compounds of the present invention were tested according to the procedure described, with results as listed in Table 7 below. A test compound is listed as “active” if the non weight adjusted prostate weight was ≦40 mg or the % Inhibition prostate weight, body weight adjusted was ≧40%@2 mg/day dosage. ID50's, if determined, of ≦15 mg/day also indicated an “active” compound.

Turning to `CC(O)(Cc1nc2cc(Cl)c(Cl)cc2[nH]1)C(F)(F)F` (stereo not shown) [Compound 27, 3-(5,6-Dichloro-2-1H-benzoimidazol-2-yl)-1,1,1-trifluoro-2-methyl-propan-2-ol], the outcome was active.

Consider `Fc1ccc(OCCn2c(CC(F)(F)F)nc3cc(Cl)c(Cl)cc32)cc1` [Compound 115, 5,6-Dichloro-1-[2-(4-fluoro-phenoxy)-ethyl]-2-(2,2,2-trifluoro-ethyl)-1H-benzoimidazole], for which the outcome was active. As for `N#Cc1ccccc1Cn1c(CC(F)(F)F)nc2cc(Cl)c(Cl)cc21` [Compound 110, 2-[5,6-Dichloro-2-(2,2,2-trifluoro-ethyl)-benzoimidazol-1-ylmethyl]-benzonitrile], the result was active.

For the molecule `COc1cc2nc(C(O)C(F)(F)F)[nH]c2cc1OC` (stereo not shown) [Compound 157, 1-(5,6-Dimethoxy-1H-benzoimidazol-2-yl-)2,2,2-trifluoro-ethanol], the result was inactive. For `N#Cc1ccc(Cn2c(CC(F)(F)F)nc3cc(Cl)c(Cl)cc32)cc1` [Compound 116, 4-[5,6-Dichloro-2-(2,2,2-trifluoro-ethyl)-benzoimidazol-1-ylmethyl]-benzonitrile] the value was “active”. The result for `Fc1ccc(Cn2c(CC(F)(F)F)nc3cc(Cl)c(Cl)cc32)cc1` [Compound 89, 5,6-Dichloro-1-(4-fluoro-benzyl)-2-(2,2,2-trifluoro-ethyl)-1H-benzoimidazole] reads “active”; that for `FC(F)(F)Cc1nc2cc(Cl)c(Cl)cc2[nH]1` [Compound 41, 5,6-Dichloro-2-(2,2,2-trifluoro-ethyl)-1H-benzoimidazole], “active”. The result for `O=C(Cn1c(CC(F)(F)F)nc2cc(Cl)c(Cl)cc21)c1ccccc1` [Compound 74, 2-[5,6-Dichloro-2-(2,2,2-trifluoro-ethyl)-benzoimidazol-1-yl]-1-phenyl-ethanone] reads “inactive”. For the molecule `Cn1c(C(C)(O)CCl)nc2cc(Cl)c(Cl)cc21` (stereo not shown) [Compound 18, 1-Chloro-2-(5,6-dichloro-1-methyl-1H-benzoimidazol-2-yl)-propan-2-ol], the outcome was active. `O=[N+]([O-])c1cc2nc(C(O)C(F)(F)F)[nH]c2cc1[N+](=O)[O-]` (stereo not shown) [Compound 155, 1-(5,6-Dinitro-1H-benzoimidazol-2-yl-)2,2,2-trifluoro-ethanol]: the outcome was inactive. The result for `COCn1c(CC(F)(F)F)nc2cc(Cl)c(Cl)cc21` [Compound 57, 5,6-Dichloro-1-methoxymethyl-2-(2,2,2-trifluoro-ethyl)-1H-benzoimidazole] reads “active”; that for `OC(c1nc2cc(Cl)c(F)cc2[nH]1)C(F)(F)F` (stereo not shown) [Compound 112, 1-(5-Chloro-6-fluoro-1H-benzoimidazol-2-yl-)2,2,2-trifluoro-ethanol], “active”; that for `O=C(Cn1c(CC(F)(F)F)nc2cc(Cl)c(Cl)cc21)c1ccc(F)cc1` [Compound 75, 2-[5,6-Dichloro-2-(2,2,2-trifluoro-ethyl)-benzoimidazol-1-yl]-1-(4-fluoro-phenyl)-ethanone], “active”. As to `FC(F)(F)Cc1nc2cc(Cl)c(Cl)cc2n1COc1ccc(Cl)cc1` [Compound 72], the outcome was inactive. For `O=C(Cn1c(CC(F)(F)F)nc2cc(Cl)c(Cl)cc21)c1cccc([N+](=O)[O-])c1` [Compound 96, 2-[5,6-Dichloro-2-(2,2,2-trifluoro-ethyl)-benzoimidazol-1-yl]-1-(3-nitro-phenyl)-ethanone] the value was “inactive”; for `FC(F)(F)Cc1nc2cc(Cl)c(Cl)cc2n1Cc1ccc(Cl)cc1` [Compound 121, 5,6-Dichloro-1-(4-chloro-benzyl)-2-(2,2,2-trifluoro-ethyl)-1H-benzoimidazole], “active”. The result for `O=C(Cn1c(CC(F)(F)F)nc2cc(Cl)c(Cl)cc21)c1cc2ccccc2o1` [Compound 84, 1-Benzofuran-2-yl-2-[5,6-dichloro-2-(2,2,2-trifluoro-ethyl)-benzoimidazol-1-yl]-ethanone] reads “inactive”; that for `FC(F)(F)Cc1nc2cc(Cl)c(Cl)cc2n1Cc1ccc(OCc2ccccc2)cc1` [Compound 146, 1-(4-Benzyloxy-benzyl)-5,6-dichloro-2-(2,2,2-trifluoro-ethyl)-1H-benzoimidazole], “active”. As for `FC(F)(F)Cc1nc2cc(Cl)c(Cl)cc2n1Cc1ccc(SC(F)(F)F)cc1` [Compound 140, 5,6-Dichloro-2-(2,2,2-trifluoro-ethyl)-1-(4-trifluoromethvlsulfanvl-benzvl)-1H-benzoimidazole], the result was inactive. The result for `COC(C)(CC#N)c1nc2cc(Cl)c(Cl)cc2n1C` (stereo not shown) [Compound 28] reads “active”; that for `CCn1c(CC(C)(O)C(F)(F)F)nc2cc(Cl)c(Cl)cc21` (stereo not shown) [Compound 37], “active”; that for `Cn1c(C(C)(O)CS(=O)(=O)Cc2ccccc2)nc2cc(Cl)c(Cl)cc21` (stereo not shown) [Compound 45, 2-(5,6-Dichloro-1-methyl-1H-benzoimidazol-2-yl)-1-phenylmethanesulfonyl-propan-2-ol], “inactive”. For `CCC(=O)Cn1c(CC(F)(F)F)nc2cc(Cl)c(Cl)cc21` [Compound 80, 1-[5,6-Dichloro-2-(2,2,2-trifluoro-ethyl)-benzoimidazol-1-yl]-butan-2-one] the value was “active”; for `FC(F)(F)Cc1nc2cc(Cl)c(Cl)cc2n1Cc1cccnc1` [Compound 99, 5,6-Dichloro-1-pyridin-3-ylmethyl-2-(2,2,2-trifluoro-ethyl)-1H-benzoimidazole], “active”; for `O=C(c1nc2cc(Cl)c(Cl)cc2[nH]1)C(F)(F)F` [Compound 114, 1-(5,6-DiChloro-1H-benzoimidazol-2-yl)-2,2,2-trifluoro-ethanone], “active”. Regarding `CC(O)(Cc1cccc(F)c1)c1nc2cc(Cl)c(Cl)cc2[nH]1` (stereo not shown) [Compound 3], the result was inactive. In the case of `Cc1onc(-c2ccccc2)c1C(=O)Cn1c(CC(F)(F)F)nc2cc(Cl)c(Cl)cc21` [Compound 126, 2-[5,6-Dichloro-2-(2,2,2-trifluoro-ethyl)-benzoimidazol-1-yl]-1-(5-methyl-3-phenyl-isoxazol-4-yl)-ethanone], the result was inactive.

Consider `FC(F)(F)Cc1nc2cc(Cl)c(Cl)cc2n1Cc1ccccc1Cl` [Compound 125, 5,6-Dichloro-1-(2-chloro-benzyl)-2-(2,2,2-trifluoro-ethyl)-1H-benzoimidazole], for which the outcome was active. As for `O=Cc1ccc(Cn2c(CC(F)(F)F)nc3cc(Cl)c(Cl)cc32)cc1` [Compound 153, 4-[5,6-Dichloro-2-(trifluoro-ethyl)-benzoimidazol-1-ylmethyl]-benzaldehyde], the result was inactive. The result for `CCn1c(C(C)(O)C(F)(F)F)nc2cc(Cl)c(Cl)cc21` (stereo not shown) [Compound 13] reads “active”; that for `O=C(Cn1c(CC(F)(F)F)nc2cc(Cl)c(Cl)cc21)c1ccc(Cl)cc1` [Compound 85, 1-(4-Chloro-phenyl)-2-[5,6-dichloro-2-(2,2,2-trifluoro-ethyl)-benzoimidazol-1-yl]-ethanone], “inactive”; that for `O=C(Cn1c(CC(F)(F)F)nc2cc(Cl)c(Cl)cc21)c1ccc([N+](=O)[O-])cc1` [Compound 76, 2-[5,6-Dichloro-2-(2,2,2-trifluoro-ethyl)-benzoimidazol-1-yl]-1-(4-nitro-phenyl)-ethanone], “active”.

With `O[C@H](c1nc2cc(Cl)c(Cl)cc2[nH]1)C(F)(F)F` [Compound 82, (−)-1-(5,6-DiChloro-1H-benzoimidazol-2-yl-)2,2,2-trifluoro-ethanol], the result was active. For `CO[C@@](C(=O)OC(c1nc2cc(Cl)c(Cl)cc2[nH]1)C(F)(F)F)(c1ccccc1)C(F)(F)F` (stereo partly shown) [Compound 106] the value was “active”; for `Fc1c(F)c(F)c(Cn2c(CC(F)(F)F)nc3cc(Cl)c(Cl)cc32)c(F)c1F` [Compound 94, 5,6-Dichloro-1-pentafluorophenylmethyl-2-(2,2,2-trifluoro-ethyl)-1H-benzoimidazole], “inactive”. For the molecule `CCC(O)Cn1c(CC(F)(F)F)nc2cc(Cl)c(Cl)cc21` (stereo not shown) [Compound 148, 1-[5,6-Dichloro-2-(2,2,2-trifluoro-ethyl)-benzoimidazol-1-yl]-butan-2-ol], the outcome was active.

As to `CCn1c(C(C)(O)CS(=O)(=O)CC(F)(F)F)nc2cc(Cl)c(Cl)cc21` (stereo not shown) [Compound 49, 2-(5,6-Dichloro-1-ethyl-1H-benzoimidazol-2-yl)-1-(2,2,2-trifluoro-ethanesulfonyl)-propan-2-ol], the result was inactive. For `CCn1c(C(C)(O)CSCC(F)(F)F)nc2cc(Cl)c(Cl)cc21` (stereo not shown) [Compound 44, 2-(5,6-Dichloro-1-ethyl-1H-benzoimidazol-2-yl)-1-(2,2,2-trifluoro-ethylsulfanyl)-propan-2-ol] the value was “inactive”. The result for `OC(c1nc2cc(Cl)ccc2[nH]1)C(F)(F)F` (stereo not shown) [Compound 156, 1-(5-1H-benzoimidazol-2-yl-)2,2,2-trifluoro-ethanol] reads “inactive”. For `N#Cc1cc2nc(C(O)C(F)(F)F)[nH]c2cc1C(F)(F)F` (stereo not shown) [Compound 135, 2-(2,2,2-Trifluoro-1-hydroxy-ethyl)-6-trifluoromethyl-1H-benzoimdazole-5-carbonitrile] the value was “inactive”.
